Assay results reported in ChEMBL document CHEMBL5143526, “Acridine-O6-benzylguanine hybrids: Synthesis, DNA binding, MGMT inhibition and antiproliferative activity” (Eur J Med Chem, 2022).
Calls of active or inactive are those of the source. No cut-off for these calls is given here.

How the values were obtained:
[1] = tested on: T98G; assay: Additive antiproliferative activity against human T98G cells assessed as reduction in cell viability at 25 uM pretreated for 2 hrs followed by TMZ addition at 375 uM and measured after 94 hrs by CellTiter-Glo luminescent cell viability assay; type: functional, cell-based; details: time 96.0 hrs
[2] = tested on: T98G; assay: Additive antiproliferative activity against human T98G cells assessed as reduction in cell viability at 25 uM pretreated for 2 hrs followed by TMZ addition at 188 uM and measured after 94 hrs by CellTiter-Glo luminescent cell viability assay; type: functional, cell-based; details: time 96.0 hrs
[3] = tested on: T98G; assay: Induction of DNA damage in human T98G cells assessed as increase in gammaH2AX foci number and size at 92 uM pretreated for 2 hrs followed by TMZ addition and measured after 94 hrs by DAPI staining based immunofluorescence assay; type: functional, cell-based; details: time 96.0 hrs
[4] = tested on: HT-29; assay: Growth inhibition of human HT-29 cells measured after 24 hrs; type: functional
[5] = tested on: T98G; assay: Induction of apoptosis in human T98G cells assessed as increase in early apoptotic cells at 92 uM pretreated for 2 hrs followed by TMZ addition and measured after 96 hrs by Annexin V-FITC/PI staining based flow cytometry analysis (reference value: 2 %); type: functional; details: time 98 hrs
[6] = tested on: T98G; assay: Synergistic antiproliferative activity against human T98G cells assessed as reduction in cell viability at 25 uM pretreated for 2 hrs followed by TMZ addition at 94 uM and measured after 94 hrs by CellTiter-Glo luminescent cell viability assay; type: functional, cell-based; details: time 96.0 hrs
[7] = tested on: T98G; assay: Antiproliferative activity against human T98G cells assessed as cell growth inhibition incubated for 96 hrs by CellTiter-Glo luminescent cell viability assay; type: functional
[8] = tested on: T98G; assay: Antiproliferative activity against human T98G cells assessed as cell viability at 25 uM incubated for 96 hrs by CellTiter-Glo luminescent cell viability assay relative to control; type: functional; details: read-out: Activity
[9] = Thermal stability of compound in aqueous solution at 10 uM at 20 to 75 degreeC by UV-vis absorption spectroscopy; type: physicochemical; details: buffer
[10] = tested on: T98G; assay: Additive antiproliferative activity against human T98G cells assessed as reduction in cell viability at 25 uM pretreated for 2 hrs followed by TMZ addition at 94 uM and measured after 94 hrs by CellTiter-Glo luminescent cell viability assay; type: functional, cell-based; details: time 96.0 hrs
[11] = Fluorescence property of compound in aqueous solution assessed as quantum yield; type: physicochemical; details: buffer
[12] = Fluorescence property of compound in MeCN assessed as quantum yield; type: physicochemical
[13] = tested on: Calf thymus DNA; assay: Binding affinity to calf thymus DNA assessed as intercalation by measuring dissociation constant at 20 uM measured after 5 mins by UV-Vis spectrophotometric titration analysis; type: nucleic-acid assay, Bos taurus
[14] = Fluorescence property of compound in THF assessed as quantum yield; type: physicochemical
[15] = Fluorescence property of compound in MeOH assessed as quantum yield; type: physicochemical
[16] = tested on: T98G; assay: Antagonistic antiproliferative activity against human T98G cells assessed as reduction in cell viability at GI50 pretreated for 2 hrs followed by TMZ addition at 188 uM and measured after 94 hrs by CellTiter-Glo luminescent cell viability assay; type: functional, cell-based; details: time 96.0 hrs
[17] = tested on: T98G; assay: Additive antiproliferative activity against human T98G cells assessed as reduction in cell viability at GI50 pretreated for 2 hrs followed by TMZ addition at 375 uM and measured after 94 hrs by CellTiter-Glo luminescent cell viability assay; type: functional, cell-based; details: time 96.0 hrs
[18] = tested on: Calf thymus DNA; assay: Binding affinity to calf thymus DNA assessed as ligand-induced thermal stabilization of DNA duplex by measuring change in melting temperature at 6.25 uM by thermal denaturation analysis; type: nucleic-acid assay; details: Bos taurus
[19] = tested on: T98G; assay: Antagonistic antiproliferative activity against human T98G cells assessed as reduction in cell viability at GI50 pretreated for 2 hrs followed by TMZ addition at 94 uM and measured after 94 hrs by CellTiter-Glo luminescent cell viability assay; type: functional, cell-based; details: time 96.0 hrs
[20] = tested on: T98G; assay: Antagonistic antiproliferative activity against human T98G cells assessed as reduction in cell viability at GI50 pretreated for 2 hrs followed by TMZ addition at 375 uM and measured after 94 hrs by CellTiter-Glo luminescent cell viability assay; type: functional, cell-based; details: time 96.0 hrs
[21] = tested on: T98G; assay: Antagonistic antiproliferative activity against human T98G cells assessed as reduction in cell viability at 25 uM pretreated for 2 hrs followed by TMZ addition at 375 uM and measured after 94 hrs by CellTiter-Glo luminescent cell viability assay; type: functional, cell-based; details: time 96.0 hrs
[22] = tested on: T98G; assay: Induction of apoptosis in human T98G cells assessed as increase in early apoptotic cells at 1.1 uM pretreated for 2 hrs followed by TMZ addition and measured after 96 hrs by Annexin V-FITC/PI staining based flow cytometry analysis relative to control; type: functional; details: time 98 hrs
[23] = tested on: T98G; assay: Synergistic antiproliferative activity against human T98G cells assessed as reduction in cell viability at GI50 pretreated for 2 hrs followed by TMZ addition at 375 uM and measured after 94 hrs by CellTiter-Glo luminescent cell viability assay; type: functional, cell-based; details: time 96.0 hrs
[24] = Drug localization in cytosolic region of human T98G cells at 1.1 uM measured after 96 hrs by confocal microscope based live cell imaging analysis; type: ADME, subcellular; details: cytosol
[25] = tested on: T98G; assay: Additive antiproliferative activity against human T98G cells assessed as reduction in cell viability at GI50 pretreated for 2 hrs followed by TMZ addition at 188 uM and measured after 94 hrs by CellTiter-Glo luminescent cell viability assay; type: functional, cell-based
[26] = tested on: T98G; assay: Synergistic antiproliferative activity against human T98G cells assessed as reduction in cell viability at GI50 pretreated for 2 hrs followed by TMZ addition at 94 uM and measured after 94 hrs by CellTiter-Glo luminescent cell viability assay; type: functional, cell-based; details: time 96.0 hrs
[27] = tested on: T98G; assay: Induction of apoptosis in human T98G cells assessed as increase in early apoptotic cells at 1.1 uM measured after 96 hrs by Annexin V-FITC/PI staining based flow cytometry analysis relative to control; type: functional
[28] = Drug localization in perinuclear region of nuclear membrane of human T98G cells assessed as appearance of z-stacked series at 1.1 uM measured after 96 hrs by confocal microscope based live cell imaging analysis; type: ADME, cell membranes
[29] = tested on: Panel NCI-60 (60 carcinoma cell lines); assay: Antiproliferative activity against human Panel NCI-60 (60 carcinoma cell lines) assessed as cell growth inhibition incubated for 48 hrs; type: functional
[30] = tested on: Calf thymus DNA; assay: Binding affinity to calf thymus DNA assessed as ligand induced positive CD band at 50 uM by Circular dichroism spectroscopy analysis; type: nucleic-acid assay; details: Bos taurus
[31] = tested on: Calf thymus DNA; assay: Displacement of ethidium bromide from calf thymus DNA incubated for 30 mins by fluorescence microplate reader assay; type: nucleic-acid assay, Bos taurus
[32] = tested on: T98G; assay: Antiproliferative activity against human T98G cells assessed as cell viability at 94 uM incubated for 96 hrs by CellTiter-Glo luminescent cell viability assay relative to control; type: functional; details: read-out: Activity
[33] = tested on: T98G; assay: Antiproliferative activity against human T98G cells assessed as cell viability at 375 uM incubated for 96 hrs by CellTiter-Glo luminescent cell viability assay relative to control; type: functional; details: read-out: Activity
[34] = tested on: T98G; assay: Antiproliferative activity against human T98G cells assessed as cell viability at 188 uM incubated for 96 hrs by CellTiter-Glo luminescent cell viability assay relative to control; type: functional; details: read-out: Activity

Nc1nc(OCc2ccccc2)c2nc[nH]c2n1 [6-O-BENZYLGUANINE]
Activity [1]: Active | Activity [2]: Active | Activity [3]: Active | GI50 [4]: > 100 µM | Activity [5]: 8% | Activity [6]: Active | GI50 [7]: 91.8 µM

NCCCCn1cnc2c(OCc3ccccc3)nc(N)nc21
Activity [1]: Active | Activity [2]: Active | viability at 25 µM [8]: ≥ 70% | Activity [6]: Active | GI50 [7]: > 25 µM

COc1ccc2nc3cc(Cl)ccc3c(NCCC(=O)NCc3cccc(COc4nc(N)nc5[nH]cnc45)c3)c2c1
Stability [9]: Stable | Activity [10]: Active | Activity [11]: 0.08 | Activity [12]: 0.06 | Kd [13]: 16.2 µM | Activity [14]: 0.12 | Activity [15]: 0.07 | Activity [16]: Active | Activity [17]: Active | ΔTm [18]: 1.5 °C | GI50 [7]: 15.6 µM

COc1ccc2nc3cc(Cl)ccc3c(NCCCCCCCCn3cnc4c(OCc5ccccc5)nc(N)nc43)c2c1
Activity [19]: Active | Stability [9]: Stable | Activity [11]: 0.05 | Activity [12]: 0.09 | Activity [20]: Active | Activity [14]: 0.08 | Activity [15]: 0.05 | Activity [16]: Active | ΔTm [18]: 0.7 °C | GI50 [7]: 14.5 µM

Nc1nc(OCc2ccccc2)c2ncn(CCCCN3C(=O)c4ccccc4C3=O)c2n1
Activity [2]: Active | viability at 25 µM [8]: ≥ 70% | Activity [21]: Active | Activity [6]: Active | GI50 [7]: > 25 µM

COc1ccc2nc3cc(Cl)ccc3c(NCCCCn3cnc4c(OCc5ccccc5)nc(N)nc43)c2c1
Activity [22]: 11% | Activity [23]: Active | Stability [9]: Stable | Drug uptake [24]: Active | Activity [11]: 0.01 | Activity [25]: Active | Activity [12]: 0.07 | Kd [13]: 19.1 µM | Activity [26]: Active | Activity [14]: 0.09 | Activity [27]: 10% | Activity [15]: 0.06 | Drug uptake [28]: Active | ΔTm [18]: 0.6 °C | GI50 [7]: 1.1 µM

COc1ccc2nc3cc(Cl)ccc3c(NCCCCn3cnc4c(=O)[nH]c(N)nc43)c2c1
Activity [25]: Active | Activity [17]: Active | GI50 [7]: > 25 µM

COc1ccc2nc3cc(Cl)ccc3c(NCCCCCCCC(=O)NCc3cccc(COc4nc(N)nc5[nH]cnc45)c3)c2c1
Stability [9]: Stable | Activity [10]: Active | Activity [11]: 0.01 | Activity [25]: Active | Activity [12]: 0.04 | Kd [13]: 14.3 µM | Activity [20]: Active | Activity [14]: 0.06 | Activity [15]: 0.06 | ΔTm [18]: 0.2 °C | GI50 [7]: 19.4 µM

COc1ccc2nc3cc(Cl)ccc3c(NCCOCCOCCn3cnc4c(OCc5ccccc5)nc(N)nc43)c2c1
Activity [23]: Active | Stability [9]: Stable | Activity [11]: < 0.01 | Activity [25]: Active | Activity [12]: 0.09 | Kd [13]: 13.4 µM | Activity [26]: Active | Activity [14]: 0.09 | Activity [15]: 0.06 | ΔTm [18]: -1.4 °C | GI50 [7]: 2.1 µM

NCc1cccc(COc2nc(N)nc3nc[nH]c23)c1
Activity [1]: Active | Activity [2]: Active | Activity [6]: Active | GI50 [7]: > 25 µM

COc1ccc2nc3cc(Cl)ccc3c(NCCOCCOCC(=O)NCc3cccc(COc4nc(N)nc5[nH]cnc45)c3)c2c1
Stability [9]: Stable | Activity [10]: Active | Activity [11]: 0.01 | Activity [12]: 0.05 | Kd [13]: 23.4 µM | Activity [20]: Active | Activity [14]: 0.06 | Activity [15]: 0.06 | Activity [16]: Active | ΔTm [18]: -0.7 °C | GI50 [7]: 25 µM

COc1ccc2nc3cc(Cl)ccc3c(N)c2c1
Activity [11]: 0.36 | Activity [25]: Active | Activity [12]: 0.22 | GI50 [29]: 1 µM | Kd [13]: 16.1 µM | Activity [26]: Active | Activity [14]: 0.22 | Activity [15]: 0.42 | Activity [30]: Active | EC50 [31]: 8 µM | ΔTm [18]: 8.5 °C | GI50 [7]: 0.6 µM

COc1ccc2nc3cc(Cl)ccc3c(NCCCCn3cnc4c(Oc5ccccc5)nc(N)nc43)c2c1
Activity [10]: Active | Activity [25]: Active | Activity [17]: Active | GI50 [7]: 0.8 µM

Cn1nnc2c(C(N)=O)ncn2c1=O [TEMOZOLOMIDE]
viability at 94 µM [32]: 100% | viability at 375 µM [33]: 50% | viability at 188 µM [34]: 63% | GI50 [7]: 375 µM
